Measurements published in ChEMBL document CHEMBL1201862, “PubChem BioAssay data set” (2004).
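Each compound was tested at five concentrations against cells in 96-well plates for 48 hours. GI50 marks 50% less growth.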 Activity calls are given as the source filed them. No stated cut-off is given here; in the data, active = GI50 up to about 1.1 µM and inactive = higher.

Key:
Experiment in all cases: NCI-60 cell line screen, 48 h
[1] = test system: A549
[2] = test system: HCT-116
[3] = test system: IGROV-1
[4] = test system: K562
[5] = test system: M14
[6] = test system: MCF7
[7] = test system: MDA-MB-435
[8] = test system: MDA-N
[9] = test system: NCI-H460
[10] = test system: OVCAR-5
[11] = test system: OVCAR-8
[12] = test system: PC-3
[13] = test system: RPMI-8226
[14] = test system: U-251
[15] = test system: CAKI-1
[16] = test system: EKVX
[17] = test system: Malme-3M
[18] = test system: T47D
[19] = test system: Hs-578T

Measured: GI50

Cn1c(Nc2ccccc2)c(/C=N\c2ccccc2)c(=O)n(C)c1=O
inactive: [1] > 100 µM | [2] 48.2 µM | [3] 38.3 µM | [4] > 100 µM | [5] > 100 µM | [6] > 100 µM | [7] > 100 µM | [8] > 100 µM | [9] 56.2 µM | [10] > 100 µM | [11] 39.7 µM | [12] > 100 µM | [13] > 100 µM | [14] 30 µM

CCCCC(=O)Nc1ccc2cc(C(=O)OC)c(=O)[nH]c2n1
inactive: [1] > 100 µM | [15] > 100 µM | [16] > 100 µM | [2] > 100 µM | [3] > 100 µM | [4] > 100 µM | [5] > 100 µM | [6] > 100 µM | [7] > 100 µM | [8] > 100 µM | [17] > 100 µM | [9] > 100 µM | [10] > 100 µM | [11] > 100 µM | [12] > 100 µM | [13] > 100 µM | [18] > 100 µM | [14] > 100 µM

CNCCN[C@@H]1c2cc3c(cc2[C@@H](c2cc(OC)c(O)c(OC)c2)[C@H]2C(=O)OC[C@@H]21)OCO3
inactive: [16] 2.23 µM | [7] 1.66 µM
active: [1] 0.0708 µM | [15] 0.264 µM | [2] 0.432 µM | [3] 0.418 µM | [4] 0.177 µM | [5] 0.394 µM | [6] 0.0296 µM | [8] 1.04 µM | [17] 0.288 µM | [9] < 0.01 µM | [10] 0.966 µM | [11] 0.252 µM | [12] 0.649 µM | [13] 0.0604 µM | [18] 0.138 µM | [14] 0.125 µM

O=c1ccn(Cc2ccccc2CCl)c(=O)[nH]1
inactive: [1] 47.8 µM | [15] 25 µM | [16] 25.4 µM | [2] 21.7 µM | [19] 29.2 µM | [3] 24.3 µM | [4] 34.8 µM | [5] 26.2 µM | [6] 23.6 µM | [7] 28.9 µM | [17] 20.2 µM | [9] > 100 µM | [10] 21.5 µM | [11] 25.9 µM | [12] 31.8 µM | [18] 43.9 µM | [14] 29.7 µM

O=C(/C=C/c1ccc(OCc2ccccc2)c(OCc2ccccc2)c1)OCc1ccccc1
inactive: [1] > 100 µM | [15] > 100 µM | [16] > 100 µM | [2] > 100 µM | [3] > 100 µM | [4] > 100 µM | [5] > 100 µM | [6] > 100 µM | [7] > 100 µM | [8] > 100 µM | [17] > 100 µM | [9] > 100 µM | [10] > 100 µM | [11] > 100 µM | [12] > 100 µM | [13] > 100 µM | [18] > 100 µM | [14] > 100 µM

CCOC(=O)C1CSCCSC1
inactive: [1] > 100 µM | [2] > 100 µM | [19] > 100 µM | [4] > 100 µM | [6] > 100 µM | [7] > 100 µM | [8] > 100 µM | [9] 17.5 µM | [11] > 100 µM | [12] > 100 µM | [14] > 100 µM

Cc1cc(NC(=O)C(=O)Cc2cnc3ccccc3n2)c(S(=O)(=O)O)cc1Cl
inactive: [1] > 100 µM | [15] > 100 µM | [16] > 100 µM | [2] > 100 µM | [19] > 100 µM | [3] > 100 µM | [4] > 100 µM | [5] > 100 µM | [6] > 100 µM | [7] > 100 µM | [17] > 100 µM | [9] > 100 µM | [10] > 100 µM | [11] > 100 µM | [12] > 100 µM | [13] > 100 µM | [18] > 100 µM | [14] > 100 µM

COc1ccc2c(c1)OCc1c-2oc2ccccc2c1=O
inactive: [1] > 100 µM | [15] > 100 µM | [16] > 100 µM | [2] > 100 µM | [3] 75.2 µM | [4] > 100 µM | [5] > 100 µM | [6] > 100 µM | [7] > 100 µM | [8] > 100 µM | [17] > 100 µM | [10] > 100 µM | [11] > 100 µM | [12] > 100 µM | [13] > 100 µM | [14] 35.8 µM

c1ccc(C(NC2CCCCC2NCCNC2CCCCC2NC(c2ccccc2)(c2ccccc2)c2ccccc2)(c2ccccc2)c2ccccc2)cc1 (stereo not given)
inactive: [1] 64.1 µM | [15] 64.4 µM | [16] 87.9 µM | [2] 20.1 µM | [19] 11.7 µM | [3] 26.8 µM | [4] 44.5 µM | [6] 17.7 µM | [7] 17.7 µM | [9] 26.8 µM | [10] > 100 µM | [11] 29.9 µM | [12] 64 µM | [13] 7.8 µM | [18] 11.7 µM | [14] 13.9 µM

Nc1nc(Cl)c(/C=N\O)c(NCC2(CO)CCC2)n1
inactive: [1] 28.4 µM | [15] 25.6 µM | [16] 17.3 µM | [2] 13.7 µM | [19] 28.2 µM | [3] > 10 µM | [4] 14 µM | [6] 25.2 µM | [7] 40.2 µM | [8] 44.4 µM | [17] 30.6 µM | [9] 32.1 µM | [10] 70.8 µM | [11] 36.2 µM | [12] 43 µM | [13] 8.11 µM | [14] > 100 µM

CCCCCCCCCCCCCCCCNc1ccn(C2CC(OP(=O)(O)OCC3OC(n4cc(CC)c(=O)[nH]c4=O)CC3O)C(CO)O2)c(=O)n1 (stereo not given)
inactive: [1] 22 µM | [15] 42.9 µM | [16] 43 µM | [2] 50.1 µM | [19] 22.1 µM | [3] 41.5 µM | [4] 20.4 µM | [5] 17.8 µM | [6] 32.5 µM | [7] 46.9 µM | [10] 23.9 µM | [11] 20 µM | [12] 18.5 µM | [13] 17.8 µM | [18] 44.2 µM | [14] 26.8 µM

CC1(C)OC[C@@H]([C@@]2(COC(c3ccccc3)(c3ccccc3)c3ccccc3)CC=CC(=O)O2)O1
inactive: [1] 40.7 µM | [15] 30.6 µM | [16] 30.9 µM | [2] 30.3 µM | [19] 46.9 µM | [4] 32.8 µM | [5] 39.7 µM | [6] 21.8 µM | [7] 33.1 µM | [17] 24.7 µM | [9] 32.1 µM | [10] 42.9 µM | [11] 33.6 µM | [12] 41.3 µM | [13] 23.4 µM | [18] 48.5 µM | [14] 48.9 µM

CCOC(=O)C(=[N+]=[N-])C(=O)CN1C(=O)C2CC(C)=C(C)CC2C1O (stereo not given)
inactive: [1] > 100 µM | [16] > 100 µM | [2] > 100 µM | [19] > 100 µM | [3] > 100 µM | [4] > 100 µM | [5] > 100 µM | [6] > 100 µM | [7] > 100 µM | [8] > 100 µM | [17] > 100 µM | [9] > 100 µM | [10] > 100 µM | [11] > 100 µM | [12] > 100 µM | [13] > 100 µM | [14] > 100 µM

CCCCCc1c(CCCC)c(O)nc2nc(NC(=O)CCCC)ccc12
inactive: [1] > 100 µM | [15] > 100 µM | [16] > 100 µM | [2] > 100 µM | [3] > 100 µM | [4] > 100 µM | [5] > 100 µM | [6] > 100 µM | [7] > 100 µM | [8] > 100 µM | [17] > 100 µM | [9] > 100 µM | [10] > 100 µM | [11] > 100 µM | [12] > 100 µM | [13] > 100 µM | [18] > 100 µM | [14] > 100 µM

C=C1CCC([N+](=O)[O-])[C@](C)(N=O)CC[C@@H]2C1CC2(C)C (stereo not given in full)
inactive: [1] 18.5 µM | [15] 34 µM | [16] 19 µM | [2] 14.8 µM | [19] 17.6 µM | [3] 24.4 µM | [4] 17.3 µM | [5] 27.4 µM | [6] 16.6 µM | [7] > 10 µM | [8] 11.6 µM | [17] 22 µM | [9] 19.1 µM | [10] 16.1 µM | [11] 22.3 µM | [12] 26.4 µM | [13] 26 µM | [14] 21.4 µM

O=c1c2ccc(S(=O)(=O)c3ccc4c(=O)n5c6ccccc6nc5c5cccc3c45)c3cccc(c32)c2nc3ccccc3n12
inactive: [1] > 100 µM | [15] > 100 µM | [16] 43.9 µM | [2] > 100 µM | [3] 1.98 µM | [5] > 100 µM | [6] > 100 µM | [7] > 100 µM | [17] > 100 µM | [9] > 100 µM | [10] > 100 µM | [11] 47.9 µM | [12] > 100 µM | [13] > 100 µM | [18] 36.6 µM | [14] 9.06 µM
